# Peptide text beside a SMILES is read from it. * marks the point of attachment. Cbz = O=C(OCc1ccccc1)*
# Assays:
# NotchΔE-EGFP [1] = assay: cells; format: cell-based; conditions: for change of reporter localization quantified by automated microscopy: assay validation, monensin 6 h dose-dependent, MG132 1 μM 16 h; for activity in NotchΔE-EGFP cells (enuc/nuc ratios): SAR and prior-art comparison, FIG. 5a/5b
# Description: To identify novel regulatory factors involved in Notch trafficking/processing an image-based high content screen was set up. […] NotchΔE-EGFP is a direct substrate for γ-secretase at the PM, and under physiological conditions is proteolytically processed to NICD-EGFP that translocates into the nucleus (for scheme see FIG. 1b), resulting in a strong nuclear EGFP-staining in steady state^15 (FIG. 1d). […] Importantly, changes in subcellular localization of the reporter are amenable to quantitation by automated microscopy^15. Accordingly, reporter fluorescence was determined in the nucleus (nuc) and in a ring around the nucleus (enuc), and the ratio enuc/nuc was evaluated (schematized in FIG. 1c). Thereafter, the assay design was functionally validated. […] The assay also reliably detected trafficking defects in the secretory pathway. […] Taken together, the assay was validated for reliably detecting concentration and time dependent changes in trafficking and processing of the Notch reporter.
# Cells were seeded in 96-well plates at a density of 5000 cells/well in 100 μl medium. The next day, 100 μl medium containing the respective test compounds was added. Cells were incubated for 16 h, fixed and processed for automated microscopy. For the putative gamma-secretase inhibitors the enuc intensity was divided by the DAPT control and for the trafficking inhibitors normalized percentage inhibition against DAPT/DMSO controls of log 2 transformed nuc/enuc ratios were calculated. Relative activity values were read into “R” (http://www.r-project.org/) and EC50 estimates were calculated using four-parameter log-logistic fit with the package “drc”^51.
# Images were acquired on an ArrayScan VTi automated microscope (ThermoFisher) and numerical data were extracted with the Compartmental Analysis BioApplication of the bundled software suite. Compound screening raw data were collected at the FMP and data transformation was performed according to standard procedures (ref 17 and supp. Refs 6-7).
# APP = APP processing in HEK293 cells stably expressing APPswe; format: cell-based; conditions: 10 μM, 16 h
# Method: (§1) FIG. 3: Effect of compounds on NotchΔE-EGFP, APP and Klotho trafficking and processing. a) HEK293 stably expressing APPswe or Klotho (KI) were incubated with DAPT or compounds (10 μM) for 16 h. Media were collected, cells lysed and both assayed by Western blotting using indicated antibodies. m, mature; im, immature; s, shedded ectodomain; CTF, C-terminal fragment. b) Membranes from HeLa-NotchΔE-EGFP and APPswe cells were isolated and subjected to a γ-secretase in vitro assay in the presence of DAPT or compounds as indicated. NICD and AICD were detected by Western Blotting using antibodies against the C-terminus of APP (top) or antibodies specific for NICD (bottom). c) Quantitation from 5 independent experiments.
# To test if the compounds that affected NotchΔE-EGFP processing also affected APP processing, HEK293 cells were used that stably expressed APPswe, a mutated APP that yields robust amounts of Aβ^18. […] All other compounds had no effect on APPCTF or Aβ.
# APP, APPs, APPCTF and Aβ detection was as described before^54 using antibodies 22C11 for APP and APPs, 6687 for APPCTF and 3552 and 2D8 for Aβ. Klotho was detected as described in Bloch et al.^20. Chemoluminescence was quantified on a LAS-4000 (Fuji) with MultiGauge software.
# NotchΔE-EGFP [2] = assay: Western blot of NotchΔE-EGFP processing in HeLa NotchΔE-EGFP lysates; format: cell-based; conditions: 10 μM, 18 h
# Method: FIG. 2: Selected compounds from final hit list show distinct phenotypes. Hela NotchΔE-EGFP cells were incubated with compounds (10 μM) for 18 h, fixed and analyzed by fluorescence microscopy (a) or lysed, separated by SDS-PAGE, blotted and probed with antibodies against GFP and NICD (b). Tubulin served as loading control. c) Quantitation of NotchΔE-EGFP accumulation and NICD production from 3-4 experiments as shown in (b). […] Arrows, plasma membrane; scalebar, 10 μm.
# Next, lysates of HeLa NotchΔE-EGFP cells treated with compounds were analyzed for processing of NotchΔE-EGFP by Western blot using antibodies specific for EGFP and NICD (FIG. 2b, c). The GFP antibody detected both the uncleaved reporter NotchΔE-EGFP and the γ-secretase product NICD-EGFP, whereas the NICD-specific antibody specifically detected cleaved NICD-EGFP. […] The observed effects were not cell type specific, as they were also apparent in U2OS cells stably expressing NotchΔE-EGFP (FIG. 9).
# [3] = test system: endogenous Notch signaling; assay: Luciferase Notch reporter assay in C2C12 cells transfected with Delta; format: cell-based; conditions: 10 μM, 16 h
# Method: (§2) Cells were incubated with DAPT or 10 μM of the indicated compounds (50 μM in case of FLI-15 and -20) and after 16 h a luciferase assay was performed. […] Changes in relative gene expression levels (fold change) relative to the expression levels in DMSO controls are represented as the mean+/−SD, asterisks indicate p<0.01. Each measurement was taken from two independent samples. Each reaction was measured in triplicate. Changes in the relative expression of ngn1 were standardized to the expression of the housekeeping gene ef1a at 20 hpf. c) ISH with riboprobes specific for ngn1 was performed on dechorionated stage 4 hpf zebrafish embryos. Anterior is to the left, dorsal to the top. Magnifications of the somite region (small box) are shown. Arrows indicate larger ngn1 clusters or stronger ngn1 staining. s, sensory neurons; i, intermediate neurons; m, motor neurons.
# (§3) We wanted to test whether the results obtained with the NotchΔE-EGFP construct are relevant for endogenous Notch signaling. Therefore we made use of C2C12 cells, a well established model for muscle development that expresses endogenous Notch^21,22. After stimulating endogenous Notch signaling by transfecting the Notch ligand Delta, Notch activity was measured by a luciferase assay using a Notch reporter^15 in the presence or absence of compounds (FIG. 4a). […] Next, we tested whether selected compounds would affect Notch signaling in vivo. […] Compounds were added to dechorionated stage 4 hpf zebrafish embryos and the effects were analyzed after 24 h by morphological inspection of somite formation. Phenotypes were ranked to four categories, normal somites, mild somite defects, strong somite defects and developmental delay. […] As an additional parameter we decided to analyze Notch-dependent genes involved in neurogenesis. Primary neurogenesis in zebrafish involves the selection of neuroblasts (repressed by Notch) from proneural clusters (Notch expressing cells), a process regulated in a negative manner by Notch-dependent lateral inhibition^25. Accordingly, neuroblast cells that express the neuronal specification factor neurogenin (ngn1^26) became more abundant when Notch signaling was impaired, for instance upon DAPT treatment^23,27. qPCR analyses on mRNA extracted from equivalent sets of embryos was performed for ngn1 expression (FIG. 4b). […] To confirm the data obtained by qPCR, whole-mount in-situ hybridizations (ISH) using an ngn1 specific riboprobe were performed (FIG. 4c, FIG. 11c). […] Taken together, FLI-06, -14, -15, -19 and -20 inhibited endogenous Notch signaling in vitro and in vivo, corroborating the NotchΔE-EGFP reporter data.
# Endogenous Notch signaling in C2C12 was determined by a luciferase assay using a 12xCSL-luciferase reporter and transfected Delta as described before^15.
# zebrafish embryos = assay: Zebrafish embryo Notch phenotype (somites, ngn1 qPCR and ISH); format: in vivo, zebrafish Danio rerio; conditions: for ngn1 positive cell clusters along the spinal cord (ISH): compared to DMSO-treated control embryos; for ngn1 mRNA levels (qPCR): relative to DMSO controls
# Method: as §2
# FIG. 11: Selected compounds affect somite formation and neurogenesis in vivo in zebrafish embryos. a) Lateral view of typical representative phenotypes induced by DAPT treatment, which were used as a reference to score the effect of compounds. […] Images were taken at 24 hpf. b) Pie chart showing the cumulative relative frequency of the phenotypes in a) at 24 hpf in embryos treated with 20, 50 and 100 iM of the indicated compounds. c) ISH with riboprobes specific for ngn1 was performed on dechorionated stage 4 hpf zebrafish embryos. Anterior is to the left, dorsal to the top. Magnifications of the developing head (box) are shown. Arrows indicate larger ngn1 clusters or stronger ngn1 staining. t, telencephalon; p, protectum; h, hindbrain; d, diencephalon; tg, tegmentum; vrc, ventral rostral cluster.
# as §3
# Embryos were obtained from natural spawning of wild-type TüAB strain adults, raised and staged according to supp. Ref 14. DAPT and compounds were applied at 50 iM in E3 embryo medium to zebrafish embryos with chorions torn but not completely removed from sphere stage until the stage of analysis, according to ref 23. Control embryos were mock treated with the same concentration of DMSO dissolved in E3 embryo medium. […]
# NotchΔE-EGFP [4] = assay: Fluorescence microscopy of reporter localization in HeLa NotchΔE-EGFP cells; format: cell-based; conditions: 10 μM compound, 24 h
# Method: FIG. 10: Phenotypes of Notch inhibitors are fully reversible. HeLa NotchΔE-EGFP cells plated in LabTek coverglass were incubated for 18 h with 10 iM of indicated compounds, washed and incubated for indicated times in cell culture medium. Cells were imaged by live-microscopy. […] Scalebar, 10 im.
# For a detailed analysis of subcelluar distribution of NotchΔE/NICD the resolution of the HCS images was not sufficient. Therefore, the reporter cell line was plated on coverslips and incubated with 10 μM of individual compounds from the final hit list. After 24 h the localization of NotchΔE-EGFP/NICD-EGFP was determined by fluorescence microscopy. […] (FIG. 8).
# Immunofluorescence stainings were made using standard procedures^55. Imaging was performed on a Zeiss Axiovert200 or an Axio Imager, using 63× 1.4NA objectives and Zeiss Axiovision software. For live-imaging cells were plated on Lab-Tek chambered coverglass (Thermo-Fisher). Images were assembled and processed using Adobe Photoshop. For displaying weakly stained ER-tubules/sheets non-linear changes in gamma-settings were used.
# γ-secretase = assay: In vitro γ-secretase assay with isolated membranes; format: biochemical; conditions: 37° C.
# Method: as §1
# To test whether FLI-06 affected other membrane proteins, Klotho, a type I protein processed like APP and Notch^20, was analyzed. […] To analyze γ-secretase activity, in vitro assays using isolated membranes were performed (FIG. 3b, c). Production of NICD-EGFP and AICD (APP intracellular domain) were assayed. Both were produced in vitro at 37° C. but not at 4° C., and their production was inhibited by DAPT.
# For assaying AICD formation, membranes of HEK293 cells stably expressing APP with the Swedish mutation were isolated and incubated for 4 h at 37° C. according to Sastre et al.^52. For assaying NICD formation, membranes from HeLa NotchΔE-EGFP cells were mixed with membranes from HeLa NotchΔE-EGFP cells that were pre-treated with 10 μM DAPT overnight to enrich substrate. After incubation samples were loaded onto either 8% SDS-PA gels (NICD) or 10-20% Tris-Tricine gels (AICD), blotted and probed with cleaved-Notch antibody or antibody 6687 against APP C-terminus^53. Chemoluminescence was quantified on a LAS-4000 (Fuji) with MultiGauge software.
smiles,measurement,setting,value
CC(C)C[C@@H](C=O)NC(=O)[C@H](CC(C)C)NC(=O)[C@H](CC(C)C)NC(=O)OCc1ccccc1 [MG132] (Cbz-Leu-Leu-Leu-aldehyde),change of reporter localization quantified by automated microscopy,NotchΔE-EGFP [1],accumulation of NICD in the nucleus
COc1ccc(C(=O)O)cc1Nc1nc2ccccc2nc1NS(=O)(=O)c1ccc(Cl)cc1 [FLI-16],APPs (shedded ectodomain) secretion,APP,reduced APPs secretion
same,NotchΔE-EGFP processing,NotchΔE-EGFP [2],no influence on NotchΔE-EGFP processing
same,inhibition of endogenous Notch signaling,[3],strongly
same,ngn1 positive cell clusters along the spinal cord (ISH),zebrafish embryos; 50 μM,reduced
same,ngn1 mRNA levels (qPCR),zebrafish embryos; 50 μM,did not induce significant changes
same,localization of NotchΔE-EGFP/NICD-EGFP,NotchΔE-EGFP [4],did not alter the reporter localization
same,NICD-EGFP and AICD production in isolated membranes,γ-secretase,did not affect in vitro γ-secretase activity
CCCCCOC(=O)C1=C(C)NC2=C(C(=O)CC(C)(C)C2)C1c1ccc([N+](=O)[O-])cc1 (stereo not drawn) [ST216093],activity in NotchΔE-EGFP cells (enuc/nuc ratios),NotchΔE-EGFP [1],show the desired activity
CC[C@@]1([C@@H]2O[C@@H]([C@H]3O[C@@](O)(CO)[C@H](C)C[C@@H]3C)C[C@@H]2C)CC[C@H]([C@]2(C)CC[C@]3(C[C@H](O)[C@@H](C)[C@@H]([C@@H](C)[C@@H](OC)[C@H](C)C(=O)O)O3)O2)O1 [monensin],change of reporter localization quantified by automated microscopy,NotchΔE-EGFP [1],blocking the anterograde transport of NotchΔE-EGFP
COCCOC(=O)C1=C(C)NC2=C(C(=O)CC(c3ccccc3OC)C2)C1c1cccc(O)c1 (stereo not drawn) [HPI-1],activity in NotchΔE-EGFP cells (enuc/nuc ratios),NotchΔE-EGFP [1],no activity
"C[C@H](NC(=O)Cc1cc(F)cc(F)c1)C(=O)N[C@H](C(=O)OC(C)(C)C)c1ccccc1 [DAPT, reference compound]",ngn1 positive cell clusters in the developing brain (ISH),"zebrafish embryos; 50 μM, compared to DMSO controls",differentially expanded
same,ngn1 positive cell clusters along the spinal cord (ISH),zebrafish embryos; 50 μM,expanded and denser clusters of ngn1 positive cells
same,ngn1 mRNA levels (qPCR),zebrafish embryos; 50 μM,significantly increased
same,somite/morphological phenotype,"zebrafish embryos; embryos treated from 4-6 hpf, scored at 24 hpf","either defective somitogenesis (mild), head and trunk malformation (strong) or developmental delay (delayed)"
same,localization of NotchΔE-EGFP/NICD-EGFP,NotchΔE-EGFP [4],accumulated at the PM
same,cell viability by visual inspection,NotchΔE-EGFP [1],viable at all times
same,t1/2 of decrease of NICD-EGFP fluorescence in the nucleus,NotchΔE-EGFP [1]; 1 μM DAPT,4.7 ± 1.0 h
same,t9/10 of decrease of NICD-EGFP fluorescence in the nucleus,NotchΔE-EGFP [1]; 1 μM DAPT,8.6 ± 2.9 h
same,NICD-EGFP and AICD production in isolated membranes,γ-secretase,inhibited
COC(=O)C1=C(C)NC2=C(C(=O)CC(c3ccc(Cl)cc3)C2)C1c1ccccc1F (stereo not drawn) [C5],activity in NotchΔE-EGFP cells (enuc/nuc ratios),NotchΔE-EGFP [1],no activity
"CC1=C(C(=O)OC2CCCCC2)C(c2ccc([N+](=O)[O-])cc2)C2=C(CC(C)(C)C/C2=N\OCC(=O)O)N1 (stereo not drawn) [compound 6, E-2-(((3′-Cyclohexyloxycarbonyl-4″-nitrophenyl-2′,7′,7′-trimethyl-1′,4′,5′,6′,7′,8′-hexahydroquinoline-5′-ylidene)amino)oxy)acetic acid]",activity in NotchΔE-EGFP cells (enuc/nuc ratios),NotchΔE-EGFP [1],entirely inactive
COCCOC(=O)C1=C(C)NC2=C(C(=O)CC(c3ccccc3)C2)C1c1ccccc1F (stereo not drawn) [C4],activity in NotchΔE-EGFP cells (enuc/nuc ratios),NotchΔE-EGFP [1],no activity
COCCOC(=O)C1=C(C)NC2=C(C(=O)CC(c3ccc(Cl)cc3)C2)C1c1ccccc1F (stereo not drawn) [C3],activity in NotchΔE-EGFP cells (enuc/nuc ratios),NotchΔE-EGFP [1],no activity

# — patent publication US9828344B2, “Inhibitors of the notch signaling pathway and secretion for use in medicine” (Leibniz-Institut für Altersforschung Fritz-Lipmann-Institut …, priority 2012, dated 2017)
